{
  "source": "patent US10597388B2",
  "about": "“Pyridazinone herbicides” (FMC CORPORATION, priority 2014, dated 2020)",
  "test_in_all_cases": "Test C greenhouse herbicide test, pre- and postemergence",
  "assay_type_in_all_cases": "in vivo",
  "key": {"[1]": {"system": "lambsquarters (Chenopodium album)", "description": "(§1) Seeds of plant species selected from blackgrass (Alopecurus myosuroides), ryegrass, Italian (Italian ryegrass, Lolium multiflorum), wheat (winter wheat, Triticum aestivum), galium (catchweed bedstraw, Galium aparine), corn (Zea mays), large crabgrass, large (large crabgrass, Digitaria sanguinalis), foxtail, giant (giant foxtail, Setaria faberii), johnsongrass (Sorghum halepense), lambsquarters (Chenopodium album), morningglory (Ipomoea coccinea), nutsedge, yellow (yellow nutsedge, Cyperus esculentus), pigweed (Amaranthus retroflexus), ragweed (common ragweed, Ambrosia elatior), soybean (Glycine max), barnyardgrass (Echinochloa crus-galli), oilseed rape (Brassica napus), waterhemp (common waterhemp, Amaranthus rudis), and velvetleaf (Abutilon theophrasti) were planted into a blend of loam soil and sand and treated preemergence with test chemicals formulated in a non-phytotoxic solvent mixture which included a surfactant.\n(§2) At the same time, plants selected from these crop and weed species and also chickweed (common chickweed, Stellaria media), kochia (Kochia scoparia), and oat, wild (wild oat, Avena fatua), were planted in pots containing Redi-Earth® planting medium (Scotts Company, 14111 Scottslawn Road, Marysville, Ohio 43041) comprising spaghnum peat moss, vermiculite, wetting agent and starter nutrients and treated with postemergence applications of test chemicals formulated in the same manner. Plants ranged in height from 2 to 18 cm (1- to 4-leaf stage) for postemergence treatments. Treated plants and controls were maintained in a greenhouse for 13 to 15 d, after which time all species were compared to controls and visually evaluated. Plant response ratings, summarized in Table C, are based on a scale of 0 to 100 where 0 is no effect and 100 is complete control. A dash (-) response means no test result."}, "[2]": {"system": "galium (catchweed bedstraw, Galium aparine)", "description": "as §1, §2"}, "[3]": {"system": "morningglory (Ipomoea coccinea)", "description": "as §1, §2"}, "[4]": {"system": "foxtail, giant (giant foxtail, Setaria faberii)", "description": "as §1, §2"}, "[5]": {"system": "barnyardgrass (Echinochloa crus-galli)", "description": "as §1, §2"}, "[6]": {"system": "crabgrass, large (large crabgrass, Digitaria sanguinalis)", "description": "as §1, §2"}, "[7]": {"system": "ragweed (common ragweed, Ambrosia elatior)", "description": "as §1, §2"}, "[8]": {"system": "wheat (winter wheat, Triticum aestivum)", "description": "as §1, §2"}, "[9]": {"system": "johnsongrass (Sorghum halepense)", "description": "as §1, §2"}, "[10]": {"system": "oilseed rape (Brassica napus)", "description": "as §1, §2"}, "[11]": {"system": "ryegrass, Italian (Italian ryegrass, Lolium multiflorum)", "description": "as §1, §2"}, "[12]": {"details": "Postemergence, 31 g ai/ha, 0 to 100 scale (0 no effect, 100 complete control)"}, "[13]": {"details": "Postemergence, 125 g ai/ha, scale 0 to 100, 0 is no effect, 100 is complete control"}, "[14]": {"details": "Postemergence, 250 g ai/ha, scale 0 to 100, 0 no effect, 100 complete control, 13 to 15 d"}, "[15]": {"details": "Preemergence, 31 g ai/ha, scale 0 to 100, 0 is no effect, 100 is complete control"}, "[16]": {"details": "Preemergence, 62 g ai/ha, scale 0 to 100, 0 is no effect, 100 is complete control"}, "[17]": {"details": "Preemergence, 250 g ai/ha, scale 0 to 100, 0 no effect, 100 complete control"}, "[18]": {"details": "postemergence, 62 g ai/ha, scale 0 to 100, 0 no effect, 100 complete control"}, "[19]": {"details": "Preemergence, 125 g ai/ha, scale 0 to 100, 0 is no effect, 100 is complete control"}},
  "data": [
    {"molecule": "CCc1oc2ccc(C)cc2c1-c1c(O)c(C)nn(C)c1=O", "note": "[Compound 10, 4-(2-ethyl-5-methyl-3-benzofuranyl)-5-hydroxy-2,6-dimethyl-3(2H)-pyridazinone]", "values": [
      {"measurement": "Lambsquarters plant response rating", "setting": "[1]; [12]", "result": 50},
      {"measurement": "Plant response rating, Lambsquarters", "setting": "[1]; [13]", "result": 65},
      {"measurement": "Plant response rating, Lambsquarters", "setting": "[1]; [14]", "result": 98},
      {"measurement": "Plant response rating, Lambsquarters", "setting": "[1]; [15]", "result": 0},
      {"measurement": "Plant response rating, Lambsquarters", "setting": "[1]; [16]", "result": 0},
      {"measurement": "Lambsquarters plant response rating", "setting": "[1]; [17]", "result": 30},
      {"measurement": "Lambsquarters plant response rating", "setting": "[1]; [18]", "result": 80},
      {"measurement": "Galium plant response rating", "setting": "[2]; [12]", "result": 5},
      {"measurement": "Plant response rating, Galium", "setting": "[2]; [13]", "result": 70},
      {"measurement": "Plant response rating, Galium", "setting": "[2]; [14]", "result": 85},
      {"measurement": "Plant response rating, Galium", "setting": "[2]; [15]", "result": 0},
      {"measurement": "Plant response rating, Galium", "setting": "[2]; [16]", "result": 5},
      {"measurement": "Plant response rating, Galium", "setting": "[2]; [19]", "result": 5},
      {"measurement": "Galium plant response rating", "setting": "[2]; [17]", "result": 45},
      {"measurement": "Galium plant response rating", "setting": "[2]; [18]", "result": 50},
      {"measurement": "Morningglory plant response rating", "setting": "[3]; [12]", "result": 55},
      {"measurement": "Plant response rating, Morningglory", "setting": "[3]; [13]", "result": 100},
      {"measurement": "Plant response rating, Morningglory", "setting": "[3]; [14]", "result": 100},
      {"measurement": "Plant response rating, Morningglory", "setting": "[3]; [15]", "result": 0},
      {"measurement": "Plant response rating, Morningglory", "setting": "[3]; [16]", "result": 0},
      {"measurement": "Plant response rating, Morningglory", "setting": "[3]; [19]", "result": 25},
      {"measurement": "Morningglory plant response rating", "setting": "[3]; [17]", "result": 55},
      {"measurement": "Morningglory plant response rating", "setting": "[3]; [18]", "result": 90},
      {"measurement": "Foxtail, Giant plant response rating", "setting": "[4]; [12]", "result": 70},
      {"measurement": "Plant response rating, Foxtail, Giant", "setting": "[4]; [13]", "result": 50},
      {"measurement": "Plant response rating, Foxtail, Giant", "setting": "[4]; [14]", "result": 90},
      {"measurement": "Plant response rating, Foxtail, Giant", "setting": "[4]; [15]", "result": 0},
      {"measurement": "Plant response rating, Foxtail, Giant", "setting": "[4]; [16]", "result": 0},
      {"measurement": "Plant response rating, Foxtail, Giant", "setting": "[4]; [19]", "result": 0},
      {"measurement": "Foxtail, Giant plant response rating", "setting": "[4]; [17]", "result": 0},
      {"measurement": "Foxtail, Giant plant response rating", "setting": "[4]; [18]", "result": 60},
      {"measurement": "Barnyardgrass plant response rating", "setting": "[5]; [12]", "result": 35},
      {"measurement": "Plant response rating, Barnyardgrass", "setting": "[5]; [13]", "result": 90},
      {"measurement": "Plant response rating, Barnyardgrass", "setting": "[5]; [14]", "result": 98},
      {"measurement": "Plant response rating, Barnyardgrass", "setting": "[5]; [15]", "result": 0},
      {"measurement": "Plant response rating, Barnyardgrass", "setting": "[5]; [16]", "result": 5},
      {"measurement": "Plant response rating, Barnyardgrass", "setting": "[5]; [19]", "result": 5},
      {"measurement": "Barnyardgrass plant response rating", "setting": "[5]; [17]", "result": 5},
      {"measurement": "Barnyardgrass plant response rating", "setting": "[5]; [18]", "result": 90},
      {"measurement": "Crabgrass, Large plant response rating", "setting": "[6]; [12]", "result": 10},
      {"measurement": "Plant response rating, Crabgrass, Large", "setting": "[6]; [13]", "result": 65},
      {"measurement": "Plant response rating, Crabgrass, Large", "setting": "[6]; [14]", "result": 75},
      {"measurement": "Plant response rating, Crabgrass, Large", "setting": "[6]; [15]", "result": 0},
      {"measurement": "Plant response rating, Crabgrass, Large", "setting": "[6]; [16]", "result": 0},
      {"measurement": "Plant response rating, Crabgrass, Large", "setting": "[6]; [19]", "result": 0},
      {"measurement": "Crabgrass, Large plant response rating", "setting": "[6]; [17]", "result": 0},
      {"measurement": "Crabgrass, Large plant response rating", "setting": "[6]; [18]", "result": 30},
      {"measurement": "Ragweed plant response rating", "setting": "[7]; [12]", "result": 5},
      {"measurement": "Plant response rating, Ragweed", "setting": "[7]; [13]", "result": 70},
      {"measurement": "Plant response rating, Ragweed", "setting": "[7]; [14]", "result": 98},
      {"measurement": "Plant response rating, Ragweed", "setting": "[7]; [15]", "result": 0},
      {"measurement": "Plant response rating, Ragweed", "setting": "[7]; [16]", "result": 0},
      {"measurement": "Plant response rating, Ragweed", "setting": "[7]; [19]", "result": 0},
      {"measurement": "Ragweed plant response rating", "setting": "[7]; [17]", "result": 5},
      {"measurement": "Ragweed plant response rating", "setting": "[7]; [18]", "result": 30},
      {"measurement": "Wheat plant response rating", "setting": "[8]; [12]", "result": 0},
      {"measurement": "Plant response rating, Wheat", "setting": "[8]; [13]", "result": 0},
      {"measurement": "Plant response rating, Wheat", "setting": "[8]; [14]", "result": 0},
      {"measurement": "Plant response rating, Wheat", "setting": "[8]; [16]", "result": 0},
      {"measurement": "Plant response rating, Wheat", "setting": "[8]; [19]", "result": 0},
      {"measurement": "Wheat plant response rating", "setting": "[8]; [17]", "result": 0},
      {"measurement": "Wheat plant response rating", "setting": "[8]; [18]", "result": 0},
      {"measurement": "Johnsongrass plant response rating", "setting": "[9]; [12]", "result": 0},
      {"measurement": "Plant response rating, Johnsongrass", "setting": "[9]; [13]", "result": 5},
      {"measurement": "Plant response rating, Johnsongrass", "setting": "[9]; [14]", "result": 25},
      {"measurement": "Plant response rating, Johnsongrass", "setting": "[9]; [15]", "result": 0},
      {"measurement": "Plant response rating, Johnsongrass", "setting": "[9]; [16]", "result": 0},
      {"measurement": "Plant response rating, Johnsongrass", "setting": "[9]; [19]", "result": 0},
      {"measurement": "Johnsongrass plant response rating", "setting": "[9]; [17]", "result": 0},
      {"measurement": "Johnsongrass plant response rating", "setting": "[9]; [18]", "result": 0},
      {"measurement": "Oilseed Rape plant response rating", "setting": "[10]; [12]", "result": 0},
      {"measurement": "Plant response rating, Oilseed Rape", "setting": "[10]; [13]", "result": 0},
      {"measurement": "Plant response rating, Oilseed Rape", "setting": "[10]; [14]", "result": 0},
      {"measurement": "Plant response rating, Oilseed Rape", "setting": "[10]; [15]", "result": 0},
      {"measurement": "Plant response rating, Oilseed Rape", "setting": "[10]; [16]", "result": 0},
      {"measurement": "Plant response rating, Oilseed Rape", "setting": "[10]; [19]", "result": 0},
      {"measurement": "Oilseed Rape plant response rating", "setting": "[10]; [17]", "result": 0},
      {"measurement": "Oilseed Rape plant response rating", "setting": "[10]; [18]", "result": 0},
      {"measurement": "Ryegrass, Italian plant response rating", "setting": "[11]; [12]", "result": 5},
      {"measurement": "Plant response rating, Ryegrass, Italian", "setting": "[11]; [13]", "result": 20},
      {"measurement": "Plant response rating, Ryegrass, Italian", "setting": "[11]; [14]", "result": 55},
      {"measurement": "Plant response rating, Ryegrass, Italian", "setting": "[11]; [15]", "result": 0},
      {"measurement": "Plant response rating, Ryegrass, Italian", "setting": "[11]; [16]", "result": 0},
      {"measurement": "Plant response rating, Ryegrass, Italian", "setting": "[11]; [19]", "result": 25},
      {"measurement": "Ryegrass, Italian plant response rating", "setting": "[11]; [17]", "result": 80},
      {"measurement": "Ryegrass, Italian plant response rating", "setting": "[11]; [18]", "result": 5}
    ]}
  ]
}
